Here are results for 101 molecules from PubChem BioAssay AID849 (SRMLSC, 2007).

Molecules are shown by their SMILES. The source made the active and inactive calls. No rule for the calls is given here.

In this assay the test system is Saccharomyces cerevisiae lifespan shortening, growth inhibition. Put plainly: Saccharomyces cerevisiae growth inhibition potency – dose response (AID 849).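 Also: yeast growth read as optical density after two days at 30 degrees C.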
As for `O=C(c1cc(-c2ccccc2O)on1)N1CCc2ccccc2C1`, the IC50 was > 100 µM (inactive).
Take `Cc1nnc(C)n1/N=C/c1cc(Br)cc(Br)c1O`: the half-inhibitory concentration (IC50) was 9.23 µM.
Take `COc1ccccc1-c1nnc(NC(=O)C(C)SC2=NCCS2)s1` (stereo unspecified): the IC50 was > 100 µM (inactive).
The same measure for `CCn1c2ccccc2c2cc(Nc3cc(C)nc4ncnn34)ccc21`: > 100 µM (inactive).
The same measure for `Clc1ccc(COC(Cn2ccnc2)c2ccc(Cl)cc2Cl)c(Cl)c1` (stereo unspecified): under 0.098 µM; for `CCCCOC(=O)Sc1nc2ccccc2o1`: 16 µM.
Consider `O=C(NC1CCCCC1)Sc1ccc(Cl)cc1`, for which the IC50 is > 100 µM (inactive).
As to `C=CCNC1=C(Cl)C(=O)c2ccccc2C1=O`, the IC50 was > 100 µM (inactive).
With `N/C(Cc1ccc(Cl)c(Cl)c1)=N\OC(=O)c1cccs1`, the IC50 is > 100 µM (inactive).
The same measure for `Cc1cc(O)c(/C=N/Nc2cccc(Cl)c2)c(=O)o1`: 40.3 µM.
The same measure for `O=C1CN(CC(=O)N2CCCCC2)c2ccccc2O1`: 43.3 µM; for `Cc1ccc2nc(/C(C#N)=C\c3ccc([N+](=O)[O-])o3)[nH]c2c1`: 18.9 µM; for `Cc1ccc(C(=O)c2c(C)oc3c2C(=O)C(=O)c2ccccc2-3)cc1`: 48.1 µM.
On to `COC(=O)Cc1cc(=O)n(-c2nc3ccccc3[nH]2)[nH]1`, for which the concentration for half-maximal inhibition (IC50) is 21.7 µM.
In the case of `CC(C)(C)c1ccc(-c2nc(-c3ccncc3)no2)cc1` it was 23.1 µM; in that of `N#CC(c1cccc(Cl)c1)c1ccc2c(C(F)(F)F)cc(C(F)(F)F)nc2n1` (stereo unspecified), > 100 µM (inactive); in that of `Oc1c(CN2CCN(c3ccc(F)cc3)CC2)cc(Cl)c2cccnc12`, 10.2 µM.
The same measure for `Cc1ccccc1NC(=S)c1nc2ccccc2[nH]1`: 29.5 µM; for `C/C(=N\Nc1ccc([N+](=O)[O-])cc1)c1ccc(N)cc1`: 40.2 µM; for `CCCCCCCCCCCCCCCC[n+]1ccc(C(N)=O)cc1`: 1.1 µM.
On to `COc1ccc2nc(NC(=S)N(C)C)sc2c1`, for which the IC50 was > 100 µM (inactive).
The same measure for `CNc1nnc(-c2cc3cc(Cl)ccc3oc2=O)s1`: > 100 µM (inactive); for `Oc1ccc(-c2csc(-c3ccccc3)n2)cc1O`: 27.5 µM; for `O=C(O)c1cc2c(s1)-c1ccccc1CC2`: 30.5 µM.
In the case of `O=[N+]([O-])c1ccc(Cl)c(S(=O)(=O)N2CCCCCC2)c1` it was 37.4 µM; in that of `Cn1c(SCC(=O)Nc2ccccc2)nc(O)cc1=O`, 50.1 µM.
In the case of `Brc1ccccc1-c1nnc(CSc2nnc3sc4ccccc4n23)o1` it was > 100 µM (inactive).
As for `CCC1CCCCN1C(=O)CSc1nnc(-c2ccc(OC)cc2)o1` (stereo unspecified), the IC50 was > 100 µM (inactive).
For the molecule `O=C(N/N=C\c1cccc([N+](=O)[O-])c1O)C1COc2ccccc2O1` (stereo unspecified), the concentration for half-maximal inhibition (IC50) is 24.8 µM.
Regarding `CCCCCCCOC(=O)C[N+](C)(C)CCOC1CC2CCC1(C)C2(C)C` (stereo unspecified), the concentration for half-maximal inhibition (IC50) is 28.4 µM.
The same measure for `Cc1ccc(C(=O)O/N=C/c2c(N3CCOCC3)n(C)c3ccccc23)cc1`: > 100 µM (inactive); for `COc1ccccc1C(=O)NNC(=S)NC(=O)c1ccco1`: > 100 µM (inactive).
The same measure for `Cc1cc(C)c2c(=O)n(CC(=O)N3CCC(Cc4ccccc4)CC3)sc2n1`: > 100 µM (inactive); for `c1ccc(-c2nc3c(ccc4ccccc43)[nH]2)nc1`: 30.7 µM; for `CCOC(=O)c1c(NC(=O)C(C)Sc2cccc[n+]2[O-])sc2c1CCN(Cc1ccccc1)C2` (stereo unspecified): 12.4 µM.
Turning to `Cc1ccccc1N=Cc1cccc(O)c1O`, the IC50 was 10 µM.
On to `Cc1ccc(/C=C/C(=O)c2ccccc(=O)c2O)c(C)c1`, for which the IC50 was 4.42 µM.
For `c1cn2cc(-c3ccc4c(c3)OCO4)nc2s1`, the IC50 was > 100 µM (inactive).
The same measure for `S=C1SCN(Cc2ccccn2)CN1Cc1ccco1`: 21.3 µM; for `OC(COc1ccc2ccccc2c1Br)Cn1cnc(-c2ccccc2)c1` (stereo unspecified): 49.3 µM; for `O=[N+]([O-])c1ccc(CN2CCCCCC2)s1`: > 100 µM (inactive).
In the case of `CCCCCC/C(=N/O)c1ccccn1` it was 10.3 µM; in that of `COC(=O)Cn1c2ccccc2c2nc(C)sc21`, > 100 µM (inactive).
The same measure for `O=C(OCn1ncc(Br)c(Br)c1=O)c1ccccc1Cl`: > 100 µM (inactive); for `CC(C)N=c1scc(-c2cccs2)n1/N=C/c1ccc(O)c(O)c1O`: > 100 µM (inactive); for `Cc1ccc2nc(-c3ccc(NS(C)(=O)=O)cc3)cc(-c3ccccc3)c2c1`: 43.2 µM.
On to `Cc1c(C=O)c2ccccn2c1C(=O)c1ccncc1`, for which the IC50 was > 100 µM (inactive).
On to `Cc1cccc(-c2nnc3sc(-c4ccccc4C)nn23)c1`, for which the IC50 is > 100 µM (inactive).
In the case of `COc1ccc(Nc2cnn(-c3nc4ccccc4s3)c(=O)c2Cl)cc1` it was > 100 µM (inactive); in that of `Cc1cc(/C=N/n2cnnc2)c(C)n1-c1ccc(OCc2ccc(Cl)cc2Cl)cc1`, > 100 µM (inactive).
The same measure for `Cc1nn(-c2ccc(F)cc2)c2sc(C(=O)O)cc12`: 30.9 µM; for `OC(Cn1cncn1)(c1ccccc1)c1ccccc1`: 13.9 µM.
In the case of `Cc1nn(-c2cccc(C(F)(F)F)c2)c(Cl)c1/C=N/Nc1cccc(C(=O)O)c1` it was 39.8 µM; in that of `CC(C)(C)n1nc(-c2ccc(F)cc2)c2c(N)ncnc21`, under 0.098 µM.
In the case of `Cc1ccccc1C(=O)NNC(=S)NC(=O)COc1ccccc1`, the IC50 was 46.3 µM.
On to `O=C(O)c1ccc2c3c(ncnc13)-c1ccccc1C2=O`, for which the half-maximal inhibitory concentration (IC50) is 1.5 µM.
In the case of `CCS(=O)(=O)n1nc(-c2ccc(Cl)cc2)nc1SCc1ccccc1` it was > 100 µM (inactive).
Regarding `Cc1cc2sc(C(=O)O)c(C)c2s1`, the half-maximal inhibitory concentration (IC50) was 41.6 µM.
The same measure for `FC(F)Sc1ccc(Nc2ncnc3nc[nH]c23)cc1`: > 100 µM (inactive).
For `COC(=O)CSCc1nc2ccccc2[nH]c1=O`, the IC50 was > 100 µM (inactive).
The same measure for `CCN(CC)N=Nc1[nH]nc2nc(C)cc(C)c12`: 7.74 µM.
Take `CCCCn1c(=O)c(C(=O)NCc2ccncc2)c(O)c2ccccc21`: the IC50 is > 100 µM (inactive).
In the case of `COc1ccc2[nH]c3c(Cl)ncnc3c2c1` it was 18.5 µM.
The same measure for `CC(=O)NC(=S)c1c(N)n(Cc2ccccc2)c(=O)n(C)c1=O`: > 100 µM (inactive); for `O=C1OCC(CO)(CO)N=C1NNc1cc(Cl)ccc1Cl`: 16.2 µM; for `NNC(=O)c1ccc(COc2ccc3c(c2)CCC3)o1`: 15.1 µM.
As for `Cc1[nH]n(-c2ccccc2)c(=O)c1/C=N/Nc1nncc(-c2ccccc2)n1`, the half-inhibitory concentration (IC50) is 19.3 µM.
In the case of `N#C/C(=C/c1cn(-c2ccccc2)nc1-c1cccc(OCc2ccc(F)cc2)c1)C(=O)NCCCn1ccnc1` it was > 100 µM (inactive); in that of `O=C1c2cccc3cccc(c23)C(=O)N1c1cccnc1`, 29.5 µM; in that of `COc1ccc(S(=O)(=O)n2oc(=O)cc2-c2ccccc2)cc1OC`, > 100 µM (inactive).
The same measure for `COc1ccc(OC)c(C2CC(=O)N3CN(c4cccc(Cl)c4)CSC3=C2C#N)c1` (stereo unspecified): > 100 µM (inactive); for `Cc1ccc(/C(N)=N/OC(=O)c2ccc(C)cc2Cl)cc1`: 14.8 µM; for `CCc1cccc2c(C(=O)COC(=O)c3ccc([N+](=O)[O-])s3)c[nH]c12`: 29.2 µM.
In the case of `O=C(COc1ccccc1)NNC(=S)NC(=O)c1ccc(Cl)cc1Cl` it was 31.6 µM.
As to `CCn1c(Sc2nc(C)nc3scc(-c4cccs4)c23)n[nH]c1=O`, the IC50 is > 100 µM (inactive).
The same measure for `CCn1c2ccc(C)cc2c2nc3cc(C(=O)O)ccc3nc21`: 9.6 µM; for `CC/C(C)=N/Nc1cccc([N+](=O)[O-])c1`: 7.6 µM.
The same measure for `O=[N+]([O-])c1ccc(N=Nc2ccc(O)cc2O)cc1`: 32 µM; for `CCCS(=O)(=O)c1nnnn1-c1cccc(OC)c1`: 3.4 µM; for `CC(=O)N1N=C(c2ccc(Cl)cc2)OC1(C)C`: > 100 µM (inactive).
`NNC(=O)c1cccc(COc2ccc3c(c2)CCC3)c1`: the IC50 was 17.3 µM.
`O=C(O)c1cc2c(s1)-c1ccccc1OC2`: the half-maximal inhibitory concentration (IC50) is 42.2 µM.
In the case of `COc1ccccc1N1CCN(Cc2cc(Br)c(O)c3ncccc23)CC1` it was 15.8 µM.
Take `CCOCC(=O)Nc1nc2c(s1)C(=O)CC(C)(C)C2`: the IC50 is > 100 µM (inactive).
The same measure for `c1ccc(Cc2nnc3sc(-c4ccc5c(c4)OCCO5)nn23)cc1`: > 100 µM (inactive).
Take `CC(N=Cc1cccc(O)c1O)c1ccccc1` (stereo unspecified): the IC50 is 9.02 µM.
With `Cc1oc(-c2cccs2)nc1CS(=O)CC(=O)NC1CCCCCC1` (stereo unspecified), the IC50 is > 100 µM (inactive).
In the case of `CCCCn1c(/N=C/c2c[nH]c3ccccc23)nc2ccccc21` it was > 100 µM (inactive); in that of `COc1ccc(OC)c(CCNC(=O)Cn2sc3nc(C)cc(C)c3c2=O)c1`, > 100 µM (inactive).
The same measure for `Oc1c(CN2CCCCC2)cc(Br)c2cccnc12`: 11.2 µM; for `CCc1oc2ccccc2c1C(=O)c1cc(Br)c(O)c(Br)c1`: 49.2 µM; for `O=C(CSC1=NS(=O)(=O)c2ccccc21)Nc1ccccc1`: > 100 µM (inactive).
Consider `COc1cc(-c2nc3ccc4ccccc4c3c3c2CCC3)ccc1O`, for which the IC50 was > 100 µM (inactive).
The same measure for `O=C(NNC(=S)NC(=O)C12CC3CC(CC(C3)C1)C2)c1ccncc1`: 19.6 µM; for `CCCn1c(CNc2ccccc2O)nc2ccccc21`: > 100 µM (inactive).
For the molecule `COc1cc(/C=N/N(C)c2ccccc2)cc(Cl)c1O`, the IC50 was > 100 µM (inactive).
In the case of `Cc1cc(C(=O)N/N=C/c2cccc([N+](=O)[O-])c2O)n[nH]1` it was > 100 µM (inactive); in that of `CCOc1ccc(-c2[nH]ncc2Oc2cccc(OC)c2)c(O)c1`, 22.8 µM; in that of `O=C(Nc1nc(-c2ccccn2)cs1)c1ncc(Cl)c(Cl)c1Cl`, > 100 µM (inactive).
With `CC(=O)N1CCN(c2ccc(OC[C@H]3CO[C@](Cn4ccnc4)(c4ccc(Cl)cc4Cl)O3)cc2)CC1`, the IC50 is 9.27 µM.
The same measure for `COc1ccc(C(=O)NC(=S)NNC(=O)c2cnccn2)cc1OC`: 20.5 µM.

What is called IC50 is the concentration that gives 50% inhibition.
